In PMC8401404 (Molecules, 2021):
In brackets after ≈: the same amount, converted by molar mass. Where a name gives a salt, the structure may show the parent alone. Read-outs that look alike come from different tables or passages of the source.

Legend:
NCI-H358 [1] = assay: Cytotoxicity (viability) assay, 3D hanging drop cell culture; details: Homo sapiens, NCI-H358, 72 h, read-out: Cytotoxicity Assay IC50 ± SD; NCI-H358 3D
Description: (§1) MTS assay gives us information about the number of living cells, in this case, metabolically active cells, whereas the BrdU proliferation assay gives a measure of the cell population in active division phase. Both assays were performed in 2D and 3D assay formats. For the 2D cell assay format, we used classic two-dimensional in vitro assays and as a 3D assay we used a hanging drop proliferation cell assay as previously described. We explored the activity of compounds on three human lung cancer cell lines, A549, HCC827 and NCI-H358. The compound activity was also tested on human lung fibroblast cell line MRC-5. A two-dimensional in vitro viability assay was performed on the MRC-5 cell line to see if tested compounds are cytotoxic on normal cell lines in low concentrations. […] 7.1.
(§2) Test compounds were synthesized by a research group at the Department of Organic Chemistry, Faculty of Chemical Engineering and Technology, University of Zagreb. […] Compounds were diluted 1:3. We transferred 500 nL (for 2D cell culture) or 400 nL (for 3D cell culture) of the compound from a mother plate to test plate by using Mosquito (TTP labtech). DMSO percentage in test concentrations was 0.5–1.0%. Starting concentration of the test compounds and standard compound doxorubicin was 50 µM (2D cell culture) or 100 µM (3D cell culture).
(§3) Cells were grown in 96-well Perfecta 3D hanging drop plates 5000 cell/well for 4 days until spheres were formed (and checked under the microscope). After sphere formation cells were treated with compounds followed by 72 h incubation. Cell viability assay was performed according to the manufacturer’s instructions, using CellTiter GLO 3D for 3D cell culture (Promega); cell incubation was 5 min on the shaker followed by 25 min incubation in the dark. Plates were read using PE EnVision luminescence.
(§4) Calculation of IC50 data, curves and QC analysis was performed by using Excel tools and GraphPadPrism software (La Jolla, CA, USA), v. […] QC criteria parameters (Z’, S:B, R2, HillSlope) were checked for every IC50 curve.

HCC827 [2] = assay: as above; details: Homo sapiens, HCC827, 72 h, read-out: Cytotoxicity Assay IC50 ± SD; HCC827 3D
Description: as §1, §2, §3, §4

A549 [3] = assay: as above; details: Homo sapiens, A549, 72 h, read-out: Cytotoxicity Assay IC50 ± SD; A549 3D
Description: as §1, §2, §3, §4

NCI-H358 [4] = assay: BrdU proliferation assay, 2D cell culture; format: cell-based, human; details: Homo sapiens, NCI-H358, 2D, n = 2, read-out: Proliferation Assay IC50 ± SD
Description: as §1, §2
(§5) Cells were grown in 96-well cell star polystyrene plates. We seeded 10,000 cells/well in wells 4 h prior to the treatment with different compounds concentrations and incubated for 72 h. A cell viability assay was performed according to the manufacturer’s instructions, using CellTiter 96 aqueous solution, MTS kit (Promega, Madison, WI, USA). After 0.5–2 h of cell incubation with MTS in 2D cell culture, the plates were read using PE EnVision absorbance at 490 nm.
(§6) Proliferation assay was performed using Cell Proliferation ELISA, BrdU (Sigma, St. Louis, MO, USA). Briefly, 48 h hours after compound addition, 10 µM of BrdU was added to each well and incubated for the following 24 h. After incubation, a single cell suspension was made for 3D cell culture in the new 96-well plate. Plates were centrifuged and supernatants were removed from each plate (for 2D and 3D cell culture) followed by 60 min incubation at 60 °C. The rest of the proliferation assay was performed according to the manufacturer’s instructions.
as §4

HCC827 [5] = assay: BrdU proliferation assay, 2D cell culture; format: cell-based, human; details: Homo sapiens
Description: as §1, §2, §5, §6, §4

A549 [6] = assay: BrdU proliferation assay, 2D cell culture; format: cell-based, human; details: Homo sapiens
Description: as §1, §2, §5, §6, §4

NCI-H358 [7] = assay: BrdU proliferation assay, 3D hanging drop cell culture; format: cell-based, human; details: Homo sapiens, NCI-H358, 3D, n = 2, read-out: Proliferation Assay IC50 ± SD
Description: as §1, §2, §3, §6, §4

HCC827 [8] = assay: as above; format: cell-based, human; details: Homo sapiens
Description: as §1, §2, §3, §6, §4

A549 [9] = assay: as above; format: cell-based, human; details: Homo sapiens
Description: as §1, §2, §3, §6, §4

S. aureus ATCC 29213 = assay: Broth microdilution testing (CLSI); format: cell-based, Staphylococcus aureus; details: Staphylococcus aureus
Description: (§7) Broth microdilution testing was performed according to CLSI (Clinical Laboratory Standards Institute) guidelines. MIC (minimal inhibitory concentration) value was defined as the last tested concentration of compound at which there is no visible growth of bacteria. […] Clinical and Laboratory Standards Institute (CLSI) guidelines.

E. coli ATCC 25922 = assay: Broth microdilution testing (CLSI); format: cell-based, Escherichia coli; details: Escherichia coli
Description: as §7

[10] = MTS cytotoxicity assay, 2D cell culture, normal lung fibroblasts; details: human
Description: as §1, §2, §5, §4

NCI-H358 [11] = assay: MTS cytotoxicity assay, 2D cell culture; details: Homo sapiens, NCI-H358, 72 h, read-out: Cytotoxicity Assay IC50 ± SD; NCI-H358 2D
Description: as §1, §2, §5, §4

HCC827 [12] = assay: MTS cytotoxicity assay, 2D cell culture; details: Homo sapiens, HCC827, 72 h, read-out: Cytotoxicity Assay IC50 ± SD; HCC827 2D
Description: as §1, §2, §5, §4

A549 [13] = assay: MTS cytotoxicity assay, 2D cell culture; details: Homo sapiens, A549, 72 h, read-out: Cytotoxicity Assay IC50 ± SD, A549 2D
Description: as §1, §2, §5, §4

S. cerevisiae ATCC 7752 = assay: Broth microdilution testing (CLSI); format: cell-based, Saccharomyces cerevisiae; details: Saccharomyces cerevisiae
Description: as §7

[14] = A549, 2D, BrdU, n = 2, read-out: Proliferation Assay IC50 ± SD
[15] = A549, 3D, BrdU, n = 2, read-out: Proliferation Assay IC50 ± SD
[16] = ATCC29213, broth microdilution, 16–24h at 37 °C, read-out: MIC S. aureus ATCC 29213
[17] = ATCC25922, broth microdilution, 16–24h at 37 °C, read-out: MIC E. coli ATCC 25922
[18] = MRC-5 normal lung fibroblasts, 2D culture
[19] = ATCC7752, broth microdilution, 16–24h at 37 °C, read-out: MIC S. cerevisiae ATCC 7752
[20] = HCC827, read-out: Proliferation Assay IC50 ± SD, HCC827 2D
[21] = HCC827, read-out: Proliferation Assay IC50 ± SD, HCC827 3D

MIC (S. aureus ATCC 29213; [16]) [µM] | MIC (E. coli ATCC 25922; [17]) [µM] | melting point [°C] | MIC (S. cerevisiae ATCC 7752; [19]) [µM] | Compound | IC50 (NCI-H358 [1]) [µM] | IC50 (HCC827 [2]) [µM] | IC50 (A549 [3]) [µM] | IC50 (NCI-H358 [4]) [µM] | IC50 (NCI-H358 [7]) [µM] | IC50 (NCI-H358 [11]) [µM] | IC50 (HCC827 [12]) [µM] | other results
> 100 | > 100 | 240 to 242 | > 100 | N#C/C(=C\c1ccc(-c2ccc([N+](=O)[O-])cc2)o1)c1nc2ccccc2s1 [Compound 19, (E)-2-(Benzothiazol-2-yl)-3-[5-(4-nitrophenyl)furan-2-yl]acrylonitrile] | > 100 | > 100 | > 100 | > 50 | > 100 | > 50 | > 50 | IC50 (HCC827 [5]; HCC827, 2D, BrdU, n = 2, read-out: Proliferation Assay IC50 ± SD): > 50 µM; IC50 (A549 [6]; [14]): > 50 µM; IC50 (HCC827 [8]; HCC827, 3D, BrdU, n = 2, read-out: Proliferation Assay IC50 ± SD): > 100 µM; IC50 (A549 [9]; [15]): > 100 µM; IC50 at 72 h [10, 18]: > 50 µM; IC50 (A549 [13]; 72 h, MTS, n = 2): > 50 µM
16 (≈ 8.75 µg/mL) | < 0.125 | – | > 64 | CC(C)(O/N=C(\C(=O)N[C@@H]1C(=O)N2C(C(=O)[O-])=C(C[n+]3ccccc3)CS[C@H]12)c1csc(N)n1)C(=O)O [Ceftazidime, reference compound] | – | – | – | – | – | – | – | –
– | – | – | – | N#C/C(=C\c1ccc(-c2ccc(Cl)cc2)o1)c1nc2ccccc2s1 [Compound 22, (E)-2-(Benzothiazol-2-yl)-3-[5-(4-chlorophenyl)furan-2-yl]acrylonitrile] | > 100 | > 100 | > 100 | > 50 | > 100 | > 50 | > 50 | IC50 (HCC827 [5]; [20]): > 50 µM; IC50 (A549 [6]; A549, read-out: Proliferation Assay IC50 ± SD, A549 2D): > 50 µM; IC50 (HCC827 [8]; [21]): > 100 µM; IC50 (A549 [9]; A549, read-out: Proliferation Assay IC50 ± SD, A549 3D): > 100 µM; MIC (S. aureus ATCC 29213; ATCC29213, read-out: MIC S. aureus ATCC 29213): > 100 µM; MIC (E. coli ATCC 25922; ATCC25922, read-out: MIC E. coli ATCC 25922): > 100 µM; IC50 at 72 h [10]: > 50 µM; IC50 (A549 [13]): > 50 µM; MIC (S. cerevisiae ATCC 7752; ATCC7752, read-out: MIC S. cerevisiae ATCC 7752): > 100 µM
– | – | 242 to 246 | – | CC(C)NC(=N)c1ccc2[nH]c(-c3ccc(-c4ccc(Cl)cc4)o3)nc2c1 (as salt: hydrochloride) [Compound 14, 2-[5-(4-Chlorophenyl)furan-2-yl]-5(6)-isopropilamidinobenzimidazole hydrochloride] | – | – | – | – | – | – | – | –
2 (≈ 0.699 µg/mL) | 4 (≈ 1.4 µg/mL) | – | > 64 | CC1(C)S[C@@H]2[C@H](NC(=O)[C@H](N)c3ccccc3)C(=O)N2[C@H]1C(=O)O [Ampicillin, reference compound] | – | – | – | – | – | – | – | –
– | – | > 270 | – | CC(C)NC(=N)c1ccc2[nH]c(-c3ccc(-c4ccc([N+](=O)[O-])cc4)o3)nc2c1 (as salt: hydrochloride) [Compound 11, 2-[5-(4-Nitrophenyl)furan-2-yl]-5(6)-N-isopropilamidinobenzimidazole hydrochloride] | – | – | – | – | – | – | – | –
– | – | – | – | COc1cc2c(Nc3ccc(Br)cc3F)ncnc2cc1OCC1CCN(C)CC1 [Vandetanib, reference compound] | 0.38 ± 0.2 | 0.16 ± 0.04 | > 50 | > 25 | 0.38 ± 0.17 | 3.12 | 0.58 ± 0.03 | IC50 (HCC827 [5]; [20]): 0.2 ± 0.11 µM; IC50 (A549 [6]; [14]): > 25 µM; IC50 (HCC827 [8]; [21]): 0.08 ± 0.02 µM; IC50 (A549 [9]; [15]): > 50 µM; IC50 at 72 h [10, 18]: 11.1 µM; IC50 (A549 [13]; 72 h, MTS, n = 2): > 25 µM
